Each structure is given as a SMILES string.

By IC50 is commonly meant the concentration at which inhibition is half-maximal. A high value points to weaker potency in that assay.

This assay concerns the target T1, hAhR (Homo sapiens, UniProt P35869).
T1 construct: Stably integrated DRE-luciferase cell lines were generated by transducing the both cell lines with Cignal XRE luciferase reporter (Qiagen) lentiviral particles; endogenous in cells
T1 sequence (P35869 11-848): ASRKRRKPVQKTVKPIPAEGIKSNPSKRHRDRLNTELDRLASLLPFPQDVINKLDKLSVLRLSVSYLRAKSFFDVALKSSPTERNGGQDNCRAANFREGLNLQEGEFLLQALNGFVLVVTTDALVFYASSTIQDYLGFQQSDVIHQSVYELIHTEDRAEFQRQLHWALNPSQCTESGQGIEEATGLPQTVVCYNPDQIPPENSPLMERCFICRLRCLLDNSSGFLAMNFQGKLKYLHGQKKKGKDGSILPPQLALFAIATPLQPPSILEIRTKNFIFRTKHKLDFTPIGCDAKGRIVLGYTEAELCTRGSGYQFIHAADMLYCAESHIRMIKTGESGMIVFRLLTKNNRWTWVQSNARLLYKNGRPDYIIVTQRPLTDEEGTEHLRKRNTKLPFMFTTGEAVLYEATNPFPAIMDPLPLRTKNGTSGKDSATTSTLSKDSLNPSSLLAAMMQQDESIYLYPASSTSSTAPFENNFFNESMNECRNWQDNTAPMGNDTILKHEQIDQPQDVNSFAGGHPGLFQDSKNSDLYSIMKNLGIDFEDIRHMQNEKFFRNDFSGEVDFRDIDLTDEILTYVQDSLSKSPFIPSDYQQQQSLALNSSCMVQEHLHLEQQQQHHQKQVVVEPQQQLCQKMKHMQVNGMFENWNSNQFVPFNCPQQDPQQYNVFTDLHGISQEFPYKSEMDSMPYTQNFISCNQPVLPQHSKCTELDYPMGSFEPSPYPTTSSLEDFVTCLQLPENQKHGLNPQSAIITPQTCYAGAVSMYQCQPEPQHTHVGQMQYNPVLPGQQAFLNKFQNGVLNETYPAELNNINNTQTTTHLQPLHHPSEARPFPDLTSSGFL
Description: AhR DRE-luciferase reporter transcriptional assay, antagonist mode (TCDD-induced). In kind it is cell-based. As to conditions: HEPG2 DRE-Luc cells, 3 nM TCDD, 24 hour incubation, relative IC50. In outline: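 HepG2 cells carrying a stably integrated DRE-luciferase reporter, in OptiMEM with 0.5% FBS; semi-log compound doses added with 3 nM TCDD, 24 h incubation, firefly luciferase read-out. Percent maximal activity normalised between vehicle ± TCDD; relative IC50 taken as half-reduction between curve plateaus.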
(In general: A reporter such as luciferase makes a cellular process visible.)
In the case of `Cc1cc(C(F)(F)F)nc2cnc(-c3ccc(NC(=O)C4CCOCC4)c(F)c3)nc12` [Example 186, N-(2-fluoro-4-(8-methyl-6-(trifluoromethyl)pyrido[3,2-d]pyrimidin-2-yl)phenyl)tetrahydro-2H-pyran-4-carboxamide], the IC50 was 1000 to 10000 nM.

For the molecule `Cn1nccc1C(=O)Nc1ccc(-c2cnc3ccccc3n2)cc1` [Example 003, 1-methyl-N-(4-(quinoxalin-2-yl)phenyl)-1H-pyrazole-5-carboxamide], the IC50 is 500 to 1000 nM.

`Cc1cc(-c2ccc3cc(C(F)(F)F)ccc3n2)ccc1NC(=O)c1ccn[nH]1` [Example 204, N-[2-methyl-4-[6-(trifluoromethyl)quinolin-2-yl]phenyl]-1H-pyrazole-5-carboxamide] displayed an IC50 of 1000 to 10000 nM.

For `Cc1ccc2nc(-c3ccc(NC(=O)c4ccnn4C)c(C)c3)ccc2c1` [Example 079, 1-methyl-N-(2-methyl-4-(6-methylquinolin-2-yl)phenyl)-1H-pyrazole-5-carboxamide], the IC50 was 500 to 1000 nM.

`Cc1cc(-c2nc(N)c3nc(C(F)(F)F)cc(C)c3n2)ccc1NC(=O)c1ccnn1C` [Example 153, N-(4-(4-amino-8-methyl-6-(trifluoromethyl)pyrido[3,2-d]pyrimidin-2-yl)-2-methylphenyl)-1-methyl-1H-pyrazole-5-carboxamide] showed an IC50 of less than 200 nM.

Regarding `CN(C(=O)c1ccnn1C)c1ccc(-c2ncc3nc(C(F)(F)F)ccc3n2)cc1F` [Example 138, N-(2-fluoro-4-(6-(trifluoromethyl)pyrido[3,2-d]pyrimidin-2-yl)phenyl)-N,1-dimethyl-1H-pyrazole-5-carboxamide], the IC50 is less than 200 nM.

`Cc1c(-c2ncc3cc(C(F)(F)F)ccc3n2)ccc(N(C)C(=O)c2ccnn2C)c1F` [Example 114, N-(2-fluoro-3-methyl-4-(6-(trifluoromethyl)quinazolin-2-yl)phenyl)-N,1-dimethyl-1H-pyrazole-5-carboxamide] gave a half-inhibitory concentration (IC50) of less than 200 nM.

As for `Cc1cc(-c2ccc3cc(F)ccc3n2)ccc1NC(=O)c1cncnc1` [Example 030, N-(4-(6-fluoroquinolin-2-yl)-2-methylphenyl)pyrimidine-5-carboxamide], the half-maximal inhibitory concentration (IC50) lay in the range of 1000 to 10000 nM.

On to `Cc1cc(-c2ncc3nc(C(F)(F)F)cc(C)c3n2)ccc1NC(=O)c1ccnn1CCO` [Example 172, 1-(2-hydroxyethyl)-N-[2-methyl-4-[8-methyl-6-(trifluoromethyl)pyrido-[3,2-d]pyrimidin-2-yl]phenyl]-1H-pyrazole-5-carboxamide], for which the IC50 is less than 200 nM.

Take `Cc1cc(-c2ccc3cc(C(N)=O)ccc3n2)ccc1NC(=O)c1ccnn1C` [Example 074, 2-(3-methyl-4-(1-methyl-1H-pyrazole-5-carboxamido)phenyl)quinoline-6-carboxamide]: the concentration for half-maximal inhibition (IC50) is 1000 to 10000 nM.

In the case of `Cc1cc(-c2ccc3c(C(F)(F)F)cccc3n2)ccc1NC(=O)c1ccnn1C` [Example 057, 1-methyl-N-(2-methyl-4-(5-(trifluoromethyl)quinolin-2-yl)phenyl)-1H-pyrazole-5-carboxamide], the IC50 was in the range of 200 to 500 nM.

For the molecule `Cc1cc(-c2ccc3cc(C(F)(F)F)ccc3n2)ccc1NC(=O)C(F)(F)F` [Example 080, 2,2,2-trifluoro-N-(2-methyl-4-(6-(trifluoromethyl)quinolin-2-yl)phenyl)acetamide], the 50% inhibitory concentration (IC50) is 1000 to 10000 nM.

Take `Cc1cc(-c2ccc3cc(C(F)(F)F)ccc3n2)ccc1N(C)C(=O)C(F)(F)F` [Example 081, 2,2,2-Trifluoro-N-methyl-N-(2-methyl-4-(6-(trifluoromethyl)quinolin-2-yl)phenyl)acetamide]: the IC50 fell in the range of 1000 to 10000 nM.

Turning to `Cc1cc(-c2ncc3nc(C(F)(F)F)ccc3n2)ccc1N(C)C(=O)c1ccnn1C` [Example 136, N,1-dimethyl-N-(2-methyl-4-(6-(trifluoromethyl)pyrido[3,2-d]pyrimidin-2-yl)phenyl)-1H-pyrazole-5-carboxamide], the concentration for half-maximal inhibition (IC50) was less than 200 nM.

Values taken from patent US20220340875A1, “METHODS OF CULTURING AND/OR EXPANDING STEM CELLS AND/OR LINEAGE COMMITTED PROGENITOR CELLS USING AMIDO COMPOUNDS” (IDEAYA BIOSCIENCES, INC., priority 2018, published 2022).
